# Reference: publication PMC9103184, “Kunitz-Type Peptides from Sea Anemones Protect Neuronal Cells against Parkinson’s Disease Inductors via Inhibition of ROS Production and ATP-Induced P2X7 Receptor Activation” (International Journal of Molecular Sciences, 2022)
# Bridge positions count the residues as written; N and C are the ends. Ends that are not written are not given here.
# Columns and labels:
# TRPV1 channels = test: Electrophysiology on TRPV1 channels expressed in Xenopus laevis oocytes; assay type: cell-based
# Experimental: Oocytes were injected with 50 nL of cRNA at a concentration of 1 ng/nL using a micro-injector (Drummond Scientific, Broomall, PA, USA).
# Kv channels = conditions: cited from earlier work
# 6-OHDA-treated cells = conditions: cited from earlier work
# [1] = molecular target: recombinant human P2X7R (47-334, complete extracellular domain) (human) (UniProt Q99572)
# trypsin [2] = molecular target: trypsin
# [3] = molecular target: recombinant human P2X7R (47-334, complete extracellular domain) (human) (UniProt Q99572); remark: listed apart in the source
# [4] = Thermal stability by CD spectroscopy; assay type: physicochemical; conditions: CD spectra and residual trypsin-inhibitory activity
# Experimental: Figure 5 Evaluation of the thermal stability of peptides in deionized water via CD spectroscopy. Recordings of the CD spectra of HCIQ2c1 (a), HMIQ3c1 (b), HCIQ4c7 (c), and HCIQ1c9 (d) were conducted in the far UV region (190–240 nm) after the solutions were incubated over a temperature range from 25 °C to 100 °C for 20–25 min.
# Circular dichroism (CD) spectra were recorded on a Chirascan-Plus CD spectropolarimeter (Applied Photophysics, Leatherhead, UK) in quartz cuvettes with an optical path length of 0.1 cm for the peptide spectrum region. The peptides were dissolved in deionized water ([…]) and incubated at temperatures ranging from 25 °C to 100 °C for 20–25 min before recording the CD spectra. The secondary structure elements were calculated using the Provencher–Glockner method using advanced Provencher calculation programs from the CDPro software package (Leatherhead, UK).
# Recombinant human P2X7R = molecular target: T1, Recombinant human P2X7R (Homo sapiens, UniProt Q99572); test: SPR binding to immobilized P2X7R extracellular domain; conditions: Biacore 3000, CM5 chip, P2X7R a.a. 47–334, HBS-N pH 7.4, 25 °C, peptide 5–100 μM, two-state (conformational change) binding model
# T1 construct: complete extracellular domain, 36.8 kDa; purchased Abbexa LTD, Cambridge, UK
# T1 sequence (Q99572 47-334): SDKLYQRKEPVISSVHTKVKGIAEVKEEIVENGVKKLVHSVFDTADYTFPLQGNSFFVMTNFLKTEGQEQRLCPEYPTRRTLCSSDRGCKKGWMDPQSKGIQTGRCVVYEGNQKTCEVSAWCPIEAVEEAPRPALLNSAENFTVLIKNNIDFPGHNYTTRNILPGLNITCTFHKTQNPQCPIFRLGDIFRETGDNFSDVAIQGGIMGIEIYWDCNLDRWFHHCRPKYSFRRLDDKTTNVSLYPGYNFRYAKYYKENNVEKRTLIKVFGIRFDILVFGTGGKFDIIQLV
# Experimental: SPR analyses were performed based on using a Biacore 3000 optical biosensor (GE Healthcare, USA) running under the program “Biacore 3000 Control Software v.1.0”. Recombinant human P2X7R (sequence positions of 47–334 a.a.; complete extracellular domain, 36.8 kDa) (Abbexa LTD, Cambridge, UK) was covalently immobilized on the carboxymethylated surface of the Biacore CM5 sensor chip (Cytiva, Chicago, IL, USA), then activated by the 1:1 mixture of 0.2 M 1-ethyl-3-(3-dimethylaminopropyl)carbodiimide hydrochloride (EDC) and 0.05 M N-hydroxysuccinimide (NHS) via the injection of receptor solution (15 μg/mL) in 10 mM sodium acetate (pH 5.0) for 10 min at a flow rate of 5 μL/min. The reference channel without immobilized P2X7R was used to correct the effects of the non-specific binding of peptides to the chip surface. The quantity of the immobilized hP2X7R equaled 12300 RU (resonance units, 1 RU corresponds to 1 pg receptor bound per mm^2 of chip surface). HBS-N (10 mM HEPES, 150 mM NaCl, pH 7.4) (Cytiva, USA) was used as a running buffer for SPR assays. Peptide solutions in the HBS-N buffer over a concentration range of 5–100 μM were passed through biosensor channels (working and reference) at a flow rate of 10 µL/min for 3 min at 25 °C. Dissociation of the formed peptide–P2X7R complexes was registered at the same flow rate for no less than 6 min from the moment of sample injection. […]
# trypsin [5] = test: enzyme inhibition kinetics (Dixon's method); trypsin 208 nM, substrate BAPNA 0.6 and 1.2 mM, peptide 0-20 uM; three parallel experiments
# [6] = calculated using the CDSSR algorithm [54], cited from earlier work
# Text: Table 1 The peptide secondary structural elements. | column: α-Helix / I; α-Helix / II; α-Helix / III; β-Structure / I; β-Structure / II; β-Structure / III; β-Turn; Unordered Structure
# P2X7R [7] = assay type: cell-based, murine
# Experimental: Neuro-2a cells were pre-incubated with studied peptides for 1 h at 37 °C with 5% CO2. Then, cells were washed twice with culture medium and loaded with 5 μM Fluo-8 dye (Sigma-Aldrich, St. Louis, MO, USA) and 1 μM Pluronic F-127 (Sigma-Aldrich, St. Louis, MO, USA) and incubated for 40 min at room temperature in HBSS saline at pH 7.4. Then, the cells were washed two times with the same solution but without the fluorescent dye and were incubated for 20–30 min at room temperature in the dark. In some experiments, Ca^2+-free medium was used. Here, 140 mM NaCl, 5 mM KCl, 0.8 mM MgCl2, 10 mM glucose, 10 mM HEPES, 5 mM EGTA, pH 7.4. ATP (1 mM final concentration) were added using a robotic microinjector (20 μL/well), then 10 s later the baseline recording and additional readings were taken up to 50 s at 1 s intervals. The standard P2X7R inhibitor A438079 (Sigma-Aldrich, St. Louis, MO, USA) was used as the inhibitory control. Ionomycin (Sigma-Aldrich, St. Louis, MO, USA) was used to generate a generic calcium signal in cells. Fluo-8 was excited at 488 nm, and the emission at 520 nm was measured with a PHERAstar plate reader (BMG LABTECH, Ortenberg, Germany).
# P2X7R [8] = test: ATP-induced YO-PRO-1 uptake in Neuro-2a cells; assay type: cell-based, murine
# Experimental: Figure 11 The effects of the peptides on ATP-induced Neuro-2a cell viability and activation of P2X7R. (a) Impact of the peptides on Neuro-2a cell viability in the presence of 4 mM ATP. The peptides were tested at concentrations of 0.01, 0.1, and 1.0 μM. Cells were incubated with peptides for 1 h at 37 °C, then for 48 h with ATP. (b) Effects of the peptides (0.01, 0.1, and 1.0 μM) on YO-PRO-1 uptake in Neuro-2a cells. ATP was used as a P2X7R agonist. A438079 (10 μM) was used as a standard inhibitor of P2X7R. The peptide effects were evaluated against the effects of ATP. The data are shown as means ± SE; *—p < 0.05 compared to the effect of ATP alone.
# For the uptake measurements of the large cationic dye YO-PRO-1, the peptides at final concentrations of 0.01, 0.1, and 1.0 μM were added to the culture medium with Neuro-2a cells and further incubated for 1 h at 37 °C with 5% CO2. Then, the cells were washed once with Hanks’ balanced salt solution (HBSS) (140 mM NaCl, 5 mM KCl, 0.8 mM MgCl2, 2 mM CaCl2, 10 mM glucose, 10 mM HEPES, pH 7.4) and filled with 180 μL of the same buffer. YO-PRO-1 (Sigma-Aldrich, St. Louis, MO, USA) was loaded into the wells to a final concentration of 5 μM, the cells were incubated for 15 min at 37 °C, then ATP was added to a final concentration of 4 mM and the plates were incubated for an additional 10 min. Then, the cells were washed three times with the buffer solution and the fluorescence intensity levels were measured with a PHERAstar FS plate reader (BMG, Germany) at λex = 480 nm and λem = 520 nm. A438079 (10 μM), a standard inhibitor of P2X7R, was used as positive control. The effectiveness of the peptides was evaluated relative to the control with ATP.
# Neuro-2a cells = test: ATP-induced Neuro-2a cell death (MTT); assay type: cell-based, murine
# Experimental: Figure 11 The effects of the peptides on ATP-induced Neuro-2a cell viability and activation of P2X7R. (a) Impact of the peptides on Neuro-2a cell viability in the presence of 4 mM ATP. The peptides were tested at concentrations of 0.01, 0.1, and 1.0 μM. Cells were incubated with peptides for 1 h at 37 °C, then for 48 h with ATP. […] The peptide effects were evaluated against the effects of ATP. The data are shown as means ± SE; *—p < 0.05 compared to the effect of ATP alone. […]
# Then, 20 μL of substance solution was loaded into the cells and incubated for 24 h followed by replacement of the medium with tested substances and 100 μL of fresh medium. […] The absorbance of the converted dye formazan was measured using a Multiskan FC microplate photometer (Thermo Scientific, Waltham, MA, USA) at a wavelength of 570 nm [83, 84]. […] Cytotoxic activity was expressed as the percentage of cell viability.
# At the end of the preincubation period, the cells were treated with peptides at concentrations of 0.01, 0.1, 1, and 10 μM for 1 h, after which 600 μM paraquat, 10 μM rotenone, 80 μM of 6-OHDA, 1 mM MPP^+, or 4 mM ATP (Sigma-Aldrich, St. Louis, MO, USA) was added. […] Cell viability was measured after 24 h (with paraquat, rotenone and 6-OHDA) or 48 h (with ATP and MPP^+) using the MTT assay [85, 86, 87].
# trypsin [9] = molecular target: T2, trypsin (Bos taurus, UniProt P00760); test: Residual trypsin-inhibitory activity after heating; assay type: biochemical; conditions: after heating to 100 °C; 7 μM peptide, 1.2 mM BAPNA, 37 °C, three parallel experiments
# T2 sequence (P00760 24-246): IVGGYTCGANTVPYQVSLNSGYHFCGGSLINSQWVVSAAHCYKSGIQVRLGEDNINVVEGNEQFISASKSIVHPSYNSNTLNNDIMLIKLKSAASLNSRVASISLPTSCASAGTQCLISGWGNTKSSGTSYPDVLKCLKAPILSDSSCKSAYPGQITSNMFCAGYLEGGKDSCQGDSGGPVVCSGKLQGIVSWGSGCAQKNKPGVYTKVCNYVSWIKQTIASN
# Experimental: Figure 6 The effects of temperature on the trypsin-inhibitory activity levels of peptides. Peptides were incubated at the temperatures for 30 min and their residual activities were measured.
# The temperature influence on the activity levels of peptides was assessed by measuring their residual inhibitory activity levels. After preincubation at temperatures ranging from 25 to 100 °C for 25 min, the peptide solutions were added to trypsin solution and the reaction mixtures were incubated for 10 min at 37 °C, then 1.2 mM BAPNA was added, followed by incubation at 37 °C for 30 min. The final concentration of the peptides was 7 μM. Substrate hydrolysis was measured at 410 nm. The residual activity was calculated based on the results of three parallel experiments according to the following equation [60]:% = (1 − residual enzyme activity/enzyme activity without inhibitor) × 100
# Sequence of Kunitz-type peptide HCIQ1c9 (A0A6B7FEJ3 15-72 limits assumed): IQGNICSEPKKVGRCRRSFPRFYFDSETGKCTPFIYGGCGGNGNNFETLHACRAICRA
molecule,measurement,setting,value
Oc1cc2c(cc1O)CN(C(=S)NCCc1ccc(Cl)cc1)CCC2 [capsazepine],effect on TRPV1 channels,TRPV1 channels; capsazepine 10 µM (antagonist control),blocking of the channels
"HCRG1: Kunitz-type peptide from H. crispa, C0HJU6 (RGICSEPKVVGPCKAGLRRFYYDSETGECKPFIYGGCKGNKNNFETLHACRGICRA; UniProt C0HJU6 1-56, looked up)",activity on Kv channels,Kv channels,blockers of Kv channels
same,effect on ROS production in 6-OHDA-treated cells,6-OHDA-treated cells,maintained ROS production in 6-OHDA-treated cells at the reference level
Kunitz-type peptide HCIQ4c7,"reduction of ATP (4 mM)-induced YO-PRO-1 dye uptake into mouse Neuro-2a cells; peptide at 0.01, 0.1 and 1.0 uM; value at 1 uM",[1],28.5%
same,decrease of trypsin-inhibitory activity (BAPNA hydrolysis) of 7 uM peptide after preincubation at 25 to 100 °C; value after 100 °C,trypsin [2],7 % decrease
same,"decrease of the stable Ca2+ response (Fluo-8) to 1 mM ATP in mouse Neuro-2a cells pre-incubated with the peptide at 0.1, 1.0 and 10.0 uM; value at 10 uM",[3],59.1%
"IQGNICSEPKKVGRCRGSFPRFYFDSETGKCTPFIYGGCGGNGNNFETLRRCRAICRA (disulfide 6-56, 15-39, 31-52) [HMIQ3c1]",thermostability: retains conformation and biological activity until,[4],90–100 °C
same,Kd,Recombinant human P2X7R,43.3 µM
Kunitz-type peptide HCIQ1c9,decrease of trypsin-inhibitory activity (BAPNA hydrolysis) of 7 uM peptide after preincubation at 60 to 100 °C,trypsin [2],30 to 70 % decrease
same,Ki,trypsin [5],0.63 µM
"SHPI-1: Kunitz-type peptide from Stichodactyla helianthus, UniProtKB P31713 (SICSEPKKVGRCKGYFPRFYFDSETGKCTPFIYGGCGGNGNNFETLHQCRAICRA; UniProt P31713 1-55, looked up)",Unordered Structure,[6],40.0
same,β-Turn,[6],18.2
same,α-Helix III,[6]; summary value,20.0
same,β-Structure III,[6]; summary value,21.8
"Nc1ncnc2c1ncn2[C@@H]1O[C@H](COP(=O)(O)OP(=O)(O)OP(=O)(O)O)[C@@H](O)[C@H]1O [ATP, adenosine-5’-triphosphate]",effect on [Ca2+]i,P2X7R [7]; ATP 1 mM,large sustained increase in [Ca^2+]i
same,increase in YO-PRO-1 dye penetration,P2X7R [8]; ATP 4 mM,49.4 ± 5.9%
same,total dead cells after ATP,"Neuro-2a cells; ATP 4 mM, 48 h, compared with control cells",up to 30.15 ± 0.68%
Kunitz-type peptide HMIQ3c1,"reduction of ATP (4 mM)-induced YO-PRO-1 dye uptake into mouse Neuro-2a cells; peptide at 0.01, 0.1 and 1.0 uM; value at 0.1 uM",[1],28.1%
same,"decrease of the stable Ca2+ response (Fluo-8) to 1 mM ATP in mouse Neuro-2a cells pre-incubated with the peptide at 0.1, 1.0 and 10.0 uM; value at 10 uM",[3],40.6%
Clc1cccc(-c2nnnn2Cc2cccnc2)c1Cl [A438079],decrease in ATP-induced stable calcium response,"P2X7R [7]; 10 μM, 1 mM ATP, Fluo-8, relative to control, means ± SE",47.7 ± 4.4%
same,reduction of ATP-induced YO-PRO-1 uptake,"P2X7R [8]; 10 μM (standard inhibitor), 4 mM ATP, means ± SE",18.5 ± 3.2%
same,increase in viability of ATP-treated cells,"Neuro-2a cells; 10 μM, pre-incubation, 4 mM ATP 48 h, vs ATP alone",21.3 ± 0.5%
"HCRG2: Kunitz-type peptide from H. crispa, C0HJU7 (RGICLEPKVVGPCKARIRRFYYDSETGKCTPFIYGGCGGNGNNFETLHACRGICRA; UniProt C0HJU7 1-56, looked up)",activity on Kv channels,Kv channels,blockers of Kv channels
same,effect on ROS production in 6-OHDA-treated cells,6-OHDA-treated cells,maintained ROS production in 6-OHDA-treated cells at the reference level
"IQGNICSEPKKVGRCRESFPRFYFDSETGKCTPFIYGGCGGNGNNFETLHACRAICRA (disulfide 6-56, 15-39, 31-52) [HCIQ4c7]",thermostability: retains conformation and biological activity until,[4],90–100 °C
same,decrease in trypsin-inhibitory activity after heating,trypsin [9],7%
same,Kd,Recombinant human P2X7R,45.5 µM
COc1cc(CNC(=O)CCCC/C=C/C(C)C)ccc1O [capsaicin],effect on TRPV1 channels,TRPV1 channels; capsaicin 2 µM (agonist control),activation of the TRPV1 channels
